Broadly, the IC50 is the point on the concentration scale where inhibition reaches its midpoint.

For assay [1], the system named is HT-29 colon adenocarcinoma. The experiment in a line: MTT cell antiproliferative assay, HT-29 (without or with verapamil). As to conditions: Homo sapiens, HT-29; MTT, 72 h. The class given is cell-based, human. As to the method:
The in vitro antiproliferative activity of the synthesized compounds was evaluated by a colorimetric reaction, using the MTT reagent. They were tested against three different human tumor cell lines: HeLa cervix epithelioid carcinoma, HT-29 colon adenocarcinoma, and MCF-7 breast adenocarcinoma. […] Moving the alkylamino substituent from a para to a meta position with respect to the bridge results in potency reduction, except for the phenstatin analogue 1f. However, the introduction of a nitrogen atom to form 2-dimethylaminopyridine derivatives entails a loss of activity, both for phenstatin analogues (1b, 2b), while for isocombretastatins, it only involves a 2–3 times potency decrease (3b). For combretastatins, it implies an improvement in the cytotoxicity values down to tenths of nanomolar (8b). […] On the other hand, the best 2-dimethylaminopyridine was combretastatin 8b. All ammonium salts derivatives were not cytotoxic at micromolar concentrations.
As observed in Table 1, there are no significant changes in the IC50 values for most compounds, except for combretastatins 8a and 8i.
Acquired resistance to antitumor drugs is one of the more important problems of chemotherapy, also affecting tubulin-targeting drugs. In order to ascertain the impact of multidrug resistance phenotypes on the action of the compounds, we have measured the cell proliferation inhibitory activity of HT-29 cells in the presence of verapamil, a known P-glycoprotein 1/multidrug resistance protein 1 (MDR1) inhibitor at a concentration of 10 µM, not affecting cell proliferation. […] Except for the combretastatin analogues 8a and 8i, the affected drugs are all pyridine drugs.
HeLa (human cervical carcinoma) and MCF-7 (human breast carcinoma) cell lines were cultured in Dulbecco’s Modified Eagles Medium (DMEM) supplemented with 2 mM L-glutamine (Lonza-Cambrex, Karlskoga, Sweden), 10% (v/v) heat inactivated fetal bovine serum (HIFBS) (Lonza-Cambrex) and 100 μg/mL streptomycin-100 IU/mL penicillin (Lonza-Cambrex) at 37 °C in humidified 95% air and 5% CO2. HT-29 (human colon carcinoma) cells were cultured at 37 °C in complete RPMI 1640 medium containing 2 mM L-glutamine, 10% (v/v) HIFBS and 100 μg/mL streptomycin-100 IU/mL penicillin in humidified 95% air and 5% CO2 atmosphere.
The effect of the different compounds on the proliferation of human cell lines was determined by using the MTT (3-[4,5-dimethylthiazol-2-yl]-2,5-diphenyltetrazolium bromide) reagent (MTT Thiazolyl Blue Tetrazolium Bromide, Sigma-Aldrich, St. Louis, MO, USA) dissolved in PBS 5 mg/mL. Cell viability was evaluated seeding 100 µL of cells in exponential growth phase with appropriate cell line concentration (1.5 × 10^4 HeLa and MCF-7 cells/mL and 3 × 10^4 HT-29 cells/mL) in complete medium in 96-well plates at 37 °C and 5% CO2. After 24 h incubation to allow cells to attach to the plates the ligands were added at different concentrations from 10^−5 to 10^−9 M. The effect on the proliferation was evaluated 72 h post-treatment by adding the MTT reagent (10 µL/well) to a final concentration of 0.5 mg/mL and the plate was further incubated for another 3 h. After this period, the supernatant was removed, the MTT violet crystals formed on the bottom of each well were dissolved in DMSO (100 µL/well) and subsequently, the absorbance of the color complex was read at 570 nm using a multi-well plate reader. Compounds were dissolved in dimethyl sulfoxide (DMSO) and the final solvent concentrations never exceeded 0.5% (v/v). The control wells included treated cells with 0.5% (v/v) DMSO and the positive control. Measurements were performed in triplicate, and each experiment was repeated three times. […] Nonlinear curves fitting the experimental data were carried out for each compound.
In general terms: Formazan colour is commonly taken as a measure of viable cells.

In assay [2] the test system is HeLa, HT-29 and MCF-7 human tumor cell lines. In words: Antiproliferative activity over the three human tumor cell lines (MTT). The settings on record: Homo sapiens, range over the cell lines, Table S1; read-out: Cytotoxicity range (range of antiproliferative IC50 values). The class given is cell-based.

With `COc1cc(C(=O)c2ccnc(N3CCCC3)c2)cc(OC)c1OC` [Compound 1h, (2-(Pyrrolidin-1-yl)pyridin-4-yl)(3,4,5-trimethoxyphenyl)methanone], the concentration for half-maximal inhibition (IC50) in assay [1] was 71 nM; in assay [2], 17 to 71 nM.

Turning to `C=C(c1ccc(N(C)C)nc1)c1cc(OC)c(OC)c(OC)c1` [Compound 3b, N,N-Dimethyl-5-(1-(3,4,5-trimethoxyphenyl)vinyl)pyridin-2-amine], the results for the IC50 in assay [1] and in assay [2] were 277 nM and 81 to 277 nM, respectively.

Regarding `COc1cc(C=Cc2ccc(N(C)C)nc2)cc(OC)c1OC` [Compound 8b, N,N-dimethyl-5-(3,4,5-trimethoxystyryl)pyridin-2-amine], the IC50 is 78 nM in assay [1] and 57 to 80 nM in assay [2].

For the compound `COc1cc(C(=O)c2cccc(N(C)C)c2)cc(OC)c1OC` [Compound 1f, (3-(Dimethylamino)phenyl)(3,4,5-trimethoxyphenyl)methanone], the IC50 is 460 nM in assay [1] and 180 to 460 nM in assay [2].

(Values after PMC6930638, “The Masked Polar Group Incorporation (MPGI) Strategy in Drug Design: Effects of Nitrogen Substitutions on Combretastatin and Isocombretastatin Tubulin Inhibitors” (Molecules, 2019).)
